In patent US5856506A, “Phosphatase inhibitors and methods of use thereof” (University of Pittsburgh, priority 1997, dated 1999):
Read-outs that look alike come from different tables or passages of the source.

Columns and labels:
PP2A [1] = molecular target: PP2A (Homo sapiens, UniProt P67775); conditions: background, literature, cited from earlier work
PP3 [2] = conditions: background, literature; cited from earlier work
PP1 [3] = conditions: cited from earlier work
Recombinant human CDC25B = experiment: CDC25B phosphatase assay, GST fusion protein, fluorescein diphosphate; format: biochemical; conditions: none = 100; 1 hour preincubation; concentration not given (0.3-100 μM tested)
Experimental: The compounds of the present invention are also capable of inhibiting dual specificity phosphatases, for example CDC25A and CDC25B. Phosphatases CDC25A and CDC25B are disclosed in U.S. Pat. No. 5,441,880. Inhibition of dual specificity phosphatases is defined herein as inhibition of the activity of CDC25A and/or CDC25B at a concentration of 100 μM of the inhibitor compound. In a preferred embodiment, the activity of the phosphatase is inhibited by at least 10%. In more preferred embodiments, the activity of the phophatase is inhibited by at least 25%, or even more preferably, by at least 50%. The ability of the compounds of the present invention to inhibit the phosphatases can be determined by measuring the effect of the compounds on the ability of CDC25 or CDC25B to dephosphorylate a substrate. Appropriate methods are known to those of ordinary skill in the art, and include, for example, calorimetric assays. A suitable assay is described in U.S. Pat. No. 5,441,880, the disclosure of which is incorporated herein by reference. […] The assay may be performed as a rapid calorimetric microtitration plate assay.
Compounds 1a-1r were assessed for ability to inhibit CDC25A and CDC25B activity. Recombinant human CDC25A and CDC25B were obtained as a glutahione-S-transferase (GST) fusion protein using human cDNA and standard molecular biological methods. The cDNA constructs are in a plasmid that is expressed in E. coli under the control of isopropyl-beta-D-[…] (IPTG). The bacterial pellet was disrupted by sonication, and centrifuged at 10,000×g. Using glutathione-agarose beads, the fusion protein was purified from postmicrosomal supernant fraction as described by Baratte et al. (1992) Anticancer Res. 12: 873-880. Phosphatase activity was assayed with a spectrofluorimeter under the following conditions: 1 unit (1 U=amount of protein that induces 33 fluoresence units/minute of product) of fusion protein in a final incubation mixture (150 μL) comprised of 25 mM Tris (pH=8.0), 5 mM EDTA, 33 μg/ml BSA, and 20 μM fluorescein diphosphate in 96-well microtiter plates. Plates were preincubated for 1 hour with 0 (control), 0.3, 1, 3, 10, 30, 100 μM compounds at room temperature. After the 1 hour incubation at room temperature, fluorescence of the fluorescein product (Ex. 485 nm; Em. 530 nm) were measured with a Biosystems Cytofluor II (Framingham, Mass.).

PP1 [4] = experiment: Phosphatase activity by [32P] release from phosphorylase-a or phosphohistone (Honkanen method); format: biochemical; conditions: 100 μM inhibitor; none = 100
Experimental: (§1) It has been found in accordance with the present invention that compounds of formula I are capable of inhibiting serine/threonine protein phosphatases. Inhibition of serine/threonine protein phosphatases is defined herein as inhibition of the activity of one or more of PP1, PP2A or PP3 at a concentration of 100 μM or less of the inhibitor compound. In a preferred embodiment, the activity of the phosphatase is inhibited by at least 10%. In more preferred embodiments, the activity of the phophatase is inhibited by at least 25%, or even more preferably, by at least 50%. Inhibition of PP1, PP2A or PP3 can be assessed by methods known to one of ordinary skill in the art. Suitable assays are described, for example by Honkanen et al. (1994) Toxicon 32:339 and Honkanen et al. (1990) J. Biol. Chem. 265: 19401, the disclosures of which are incorporated herein by reference. Briefly, phosphatase activity is determined by quantifying the [^32 p] released from a ^32 p-labeled substrate such as phosphohistone or phosphorylase-a. Decreased [^32 p] release in the presence of the compounds of the present invention relative to control samples provides a measure of the ability of the compounds of the invention to inhibit PP1, PP2A or PP3.
(§2) Phosphatase activity and the inhibitory activity of the compounds of Table 1 were determined by the method of Honkanen et al. (1994) Toxicon 32:339. Briefly, phosphatase activity against phosphorylase-a or phosphohistone was 25 determined by the quantification of liberated [^32 p]. Assays, 80 μl total volume, containing 50 mM Tris-HCl, pH 7.4, 0.5 mM DTT, 1 mM EDTA (assay buffer) and [^32 p]phosphoprotein (1-2 μM PO4), were conducted as described previously (Honkanen et al., 1991 Mol. Pharmac. 40:577). Dephosphorylation reactions were routinely conducted for 5-10 min. using phosphorylase-a as a substrate and for 10-20 min. using phosphohistone. In all assays the dephosphorylation of substrate was kept to less than 10% of the total phosphorylated substrate available, and the reactions were adjusted to ensure that enzyme activity was linear with respect to enzyme concentration and time. [^32 p]Phosphate liberated by the enzymes was extracted as a phosphomolybdate complex and measured according to the methods of Killilea et al. (1978) Arch. Biochem. Biophys. 191:638. Inhibition of protein phosphatase activity by inhibitors was determined by adding the 100 μM of inhibitors to the enzyme mixture 5-10 min. prior to initiating the reaction with the addition of substrate.

PP2A [5] = molecular target: PP2A (Bos taurus, UniProt P67774); experiment: as above; format: biochemical; conditions: 100 μM inhibitor; none = 100; read-out: PP2A, percent inhibition relative to control (100%)
Experimental: as §1, §2

PP3 [6] = experiment: as above; format: biochemical; conditions: 100 μM inhibitor; none = 100
Experimental: as §1, §2

[7] = molecular target: T1, catalytic subunit of bovine cardiac muscle PP2A (Bos taurus, UniProt P67774); experiment: PP2A activity with fluorescein diphosphate substrate in 96-well plates; format: biochemical; conditions: FIG. 6
T1 construct: purchased Gibco-BRL, Gaithersburg, Md; host or cells: bovine cardiac muscle
Experimental: FIG. 6 is a graph of inhibition of PP2A activity by compound 1d. The catalytic subunit of PP2A was incubated with vehicle alone (control), calyculin A (10 nM) or compound 1d (100 uM), and the dephosphorylation of the substrate fluorescein diphosphate determined spectro-photometrically. Mean results of two independent experiments are shown; bars indicate the range.
In another suitable assay, the ability of the compounds of the present invention to inhibit the activity of protein phosphatase PP2A is assessed. The activity of the catalytic subunit of bovine cardiac muscle PP2A (Gibco-BRL, Gaithersburg, Md.) is measured in 96-well microtiter plates using the substrate fluorescein diphosphate as follows. […] Fluorescence emission from the product is measured spectrofluorometrically, for example with Perseptive Biosystems Cytofluor II (Framingham, Mass.) (excitation filter, 485 nm; emission filter, 530 nm). The rate of increase in absorbance due to formation of dephosphorylated substrate is proportional to phosphatase activity. Thus, decreased absorbance relative to control samples provides a measure of the ability of the present compounds to inhibit the phosphatase.
The activity of the catalytic subunit of bovine cardiac muscle PP2A (Gibco-BRL, Gaithersburg, Md.) was measured with fluorescein diphosphate (Molecular Probes, Inc., Eugene, Oreg.) as a substrate in 96-well microtiter plates. […]

[8] = tested on: human MDA-MB-231 breast cancer cells; experiment: Antiproliferative activity, tetrazolium reduction assay (Lazo method), 72 h; format: cell-based; conditions: MDA-MB-231, 72 h
Excerpt: The ability of the compounds of the present invention to inhibit proliferation can be assessed by methods known to those of ordinary skill in the art. For example, proliferating cells can be contacted with a compound of the invention, and cell numbers determined. A reduction in cell number in treated versus untreated cells provides a measure of the ability of the present compounds to inhibit proliferation. In a preferred embodiment the cells to be treated are cancer cells, for example breast cancer cells such as the CDC25B+ breast cancer cells MDA-MB-231, which are available from the American Type Culture Collection (Accession No. HTB-26). The antiproliferative activity of the present compounds can also be measured by the assay described by Lazo et al. (1995) J. Biol. Chem. 270: 5506, the disclosure of which is incorporated herein by reference. The microtiter-based calorimetric assay is based upon the reduction of 3-[4,5-dimethylthiazol-2-yl]-2,5-diphenyl tetrazolium bromide by living cells, and permits evaluation of the cytostatic or cytotoxic actions of large numbers of compounds quickly in mouse embryonic fibroblasts and human CDC25B+ breast cancer cells. Briefly, exponentially growing CDC25B+ MDA-MB-231 cells are treated continuously with from 0 to 100 μM of a compound of the invention, and cell proliferation is determined calorimetrically after 72 hours by assessing the ability of the cells to reduce 3-[4,5-dimethylthiazol-2-yl]-2,5-diphenyl tetrazolium bromide.
Human MDA-MB-231 breast carcinoma cells were obtained from the American Type Culture Collection at passage 28 and were maintained for no longer than 20 passages. The cells were grown in RPMI-1640 supplemented with 1% penicillin (100 μg/mL) and streptomycin (100 μg/mL), 1% L-glutamate,and 10% fetal bovine serum in a humidified incubator at 37° C. under 5% CO2 in air. Cells were routinely found free of mycoplasma. To remove cells from the monolayer for passage or flow cytometry, cells were washed two times with phosphate buffer and briefly (<3 min) treated with 0.05% trypsin/2 mM EDTA at room temperature. After the addition of at least two volumes of growth medium containing 10W fetal bovine serum, the cells were centrifuged at 1,000×g for 5 min. Compounds were made into stock solutions using DMSO, and stored at -20° C. All compounds and controls were added to obtain a final concentration of 0.1-0.2% (v/v) of the final solution for experiments.
The antiproliferative activity of the compounds was determined by the method of Lazo et al. (1995) J. Biol. Chem. 270:5506. Briefly, cells (6.5×10^3 cells/cm^2) were plated in 96 well flat bottom plates for the cytotoxicity studies and incubated at 37° C. for 48 h. The plating medium was aspirated off 96 well plates and 200 μL of growth medium containing the compound was added per well. Compounds were used at from O to the highest available concentration which ranged from 30 to 100 μM. Plates were incubated for 72 h, and then washed 4× with serum free medium. After washing, 50 μL of 3-[4,5-dimethylthiazol-2-yl]-2,5-diphenyl tetrazolium bromide solution (2 mg/mL) was added to each well, followed by 150 μL of complete growth medium. Plates were then incubated an additional 4 h at 37° C. The solution was aspirated off, 200 μL of DMSO added, and the plates were shaken for 30 min at room temperature. Absorbance at 540 nm was determined with a Titertek Multiskan Plus plate reader. Biologically active compounds were tested at least 3 independent times.

[9] = somewhat selective but weak inhibitors

Sequence of PP2A (Homo sapiens, UniProt P67775) (P67775 whole entry): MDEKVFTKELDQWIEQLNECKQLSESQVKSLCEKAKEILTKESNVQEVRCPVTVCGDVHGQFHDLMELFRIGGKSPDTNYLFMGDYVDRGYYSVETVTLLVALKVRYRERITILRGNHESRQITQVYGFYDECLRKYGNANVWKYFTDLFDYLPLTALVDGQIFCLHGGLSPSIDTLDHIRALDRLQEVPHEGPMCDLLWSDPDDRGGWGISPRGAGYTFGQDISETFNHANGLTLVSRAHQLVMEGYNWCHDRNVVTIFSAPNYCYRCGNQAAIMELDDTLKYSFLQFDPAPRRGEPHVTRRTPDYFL
Sequence of PP2A (Bos taurus, UniProt P67774) (P67774 whole entry): as the sequence (P67775 whole entry) above
T1 sequence (P67774 whole entry): as the sequence (P67775 whole entry) above

CO[C@H]([C@H](O)CC(=O)[C@@H](C)[C@@H](O)CC[C@@H](C)[C@@H]1O[C@]2(CC[C@@H](C)[C@H](CC[C@H](C)C(C)=O)O2)CC[C@@H]1C)[C@H](OC(=O)C[C@@H](O)C1=C(C)C(=O)OC1=O)C(C)C [Tautomycin]
IC50 (PP2A [1]): ~15 nM | IC50 (PP3 [2]): ~15 nM | IC50 (PP1 [3]; background, literature): ~15 nM

CCCCCCCCCC(=O)NC(CCC(=O)N(C)CCNC(=O)c1nc(-c2ccccc2)oc1-c1ccccc1)C(=O)O (stereo not drawn) [Compound 1d]
CDC25B activity remaining, percent of control (Recombinant human CDC25B): 91% | PP1 remaining activity, percent of control (PP1 [4]): 53% | PP2A remaining activity, % of control at 100 µM (PP2A [5]): 69% | PP3 remaining activity, percent of control (PP3 [6]): 33% | inhibition at 100 µM ([7]; 100 μM): 50%

C/C=C1/C(=O)N[C@@H](C(=O)O)[C@H](C)C(=O)N[C@@H](C(C)C)C(=O)N[C@@H](/C=C/C(C)=C/[C@H](C)[C@H](Cc2ccccc2)OC)[C@H](C)C(=O)N[C@@H](C(=O)O)CCC(=O)N1C [Motuporin]
IC50 (PP1 [3]): < 1 nM

CCCCCCN(CCNC(=O)c1nc(-c2ccccc2)oc1C)C(=O)CCC(NC(=O)CCc1ccccc1)C(=O)O (stereo not drawn) [Compound 1h]
CDC25B activity remaining, percent of control (Recombinant human CDC25B): 69% | PP1 remaining activity, percent of control (PP1 [4]): 63% | PP2A remaining activity, % of control at 100 µM (PP2A [5]): 88% | PP3 remaining activity, percent of control (PP3 [6]): 17% | IC50 ([8]; Homo sapiens, MDA-MB-231, 72 h continuous treatment, read-out: concentration causing 50% growth inhibition): 20000 nM | concentration dependence of growth inhibition (in words) [8]: no further cytotoxicity at higher drug concentrations

C[C@@]12C(=O)OC(=O)[C@]1(C)[C@H]1CC[C@@H]2O1 [cantharidine]
IC50 (PP2A [1]; [9]): 160 to 10000 nM

COC[C@@H]([C@H](O)[C@H](O)C(=O)NCC[C@H](C)c1nc(/C=C/C[C@@H]2O[C@]3(C[C@@H](O)[C@@H]2C)O[C@H]([C@H](C[C@H](O)[C@H](C)[C@H](O)[C@H](C)/C=C(C)/C(C)=C/C=C/C(C)=C\C#N)OC)[C@H](OP(=O)(O)O)C3(C)C)co1)N(C)C [calyculin A]
IC50 (PP2A [1]): ~0.3 nM | IC50 (PP3 [2]): ~0.3 nM | IC50 (PP1 [3]; background, literature): ~0.3 nM | inhibition of PP2A activity (in words) ([7]; 10 nM): inhibited PP2A activity

thyrsiferal-23-acetate
IC50 (PP2A [1]; [9]): 160 to 10000 nM
